Results on 34 compounds are retold here after a melting point compilation (Tetko et al.; mined from patent text by program, amines drawn as free bases though some values may be those of a salt).

Molecules are shown by their SMILES.

For orientation: melting point means the temperature of the solid-liquid transition. `CCn1c(C)nc2cc(C(F)(F)F)c(Cl)c(NC)c21` gave a melting point of 116 to 119 °C. `O=C(C1CCCCC1)N(CCN1CCN(c2cccc3cccnc23)CC1)c1ccccc1OC(F)(F)F` showed a melting point of 142 to 143 °C. `COc1cccc(CN2CCc3cc(OCc4ccccc4)c(OC)cc3C2)c1` had a melting point of 71 to 72 °C. Regarding `CC(C)c1cc2c(c(C(C)C)c1)Oc1ccc(C(N)=O)cc1N(CCN(C)C)C2=O`, the melting point lay in the range of 223 to 225 °C. Take `CC(C)(C)N=NC(C)(C)SC#N`: the melting point fell in the range of 29 to 31 °C. As for `CC(N)C(C)n1ncn(-c2ccc(N3CCN(c4ccc(O)cc4)CC3)cc2)c1=O` (centres undefined), the melting point is 237 °C. `CC(CCC(=O)O)(c1ccc(OCc2ccc3ccccc3n2)c(Cl)c1)c1ccc(OCc2ccc3ccccc3n2)c(Cl)c1` displayed a melting point of 91 to 94 °C.

Compound `N#CC1(c2ccc(OC(F)F)c(OCC3CC3)c2)CCC(=C2SCCCS2)CC1` (centres undefined) gave a melting point of 84 to 85 °C. As to `Cc1cc(C)cc(-c2cn(C)cc(-c3cccc(C(F)(F)F)c3)c2=O)c1`, the melting point fell in the range of 160 to 163 °C. The same measure for `CCN1c2ccccc2N(C(=O)CN(C)C)c2ccccc2S1(=O)=O`: 115 to 116 °C; for `CC(=O)c1ccc(C2c3cc(NC(=O)CC(C)(C)C)c(C)c(C)c3OC2(C)C)cc1` (centres undefined): 195 to 196 °C.

Take `COC(=O)c1cccc(OC)c1OS(=O)(=O)NC(=O)Nc1nc(OC)cc(OC)n1`: the melting point lay in the range of 169 to 170 °C. `Cc1c2c(c(-c3ccc4c(c3)OCO4)c3c4c(ccc13)OCO4)CNC2=O` gave a melting point of 292 to 293 °C. As to `Cn1c(=O)n(C)c2cc3c(N4CCN(C(=O)Nc5ccc([N+](=O)[O-])cc5)CC4)ncnc3cc21`, the melting point fell in the range of 299 to 300 °C. Compound `CCNc1cc(NS(=O)(=O)c2ccc(N)cc2)nc(N2CCC2)n1` registered a melting point of 260 to 262 °C. `O=C(c1ccc(OCC2CC2)c2oc3ccccc3c12)[NH+]([O-])c1cccnc1` (centres undefined) yielded a melting point of 272 to 275 °C. The compound `CCc1c(C(=O)Cl)cnn1-c1ccc(Cl)cc1` showed a melting point of 105 to 107 °C. Consider `COC(=O)c1c(C(=O)OC)c(-c2ccc(OC)cc2)n2c1Cc1cc(OC)ccc1-2`, for which the melting point is 240 to 242 °C. In turn, `O=C(NCCCCn1ccnc1)c1ccc(Cl)c(Cl)c1` showed a melting point of 86 to 88 °C.

`O=C(C1NCCc2sccc21)N1CCCC1` (centres undefined) registered a melting point of 114 to 116 °C.

With `COC(=O)C12C3C4C1(C(=O)OC)C1(Cl)C2C3(C(=O)OC)C41C(=O)OC` (centres undefined), the melting point was 134 to 135 °C. Take `COC(=O)Cc1cc(OCc2ccccc2)ccc1OC`: the melting point fell in the range of 74 to 75 °C. The figure for `CCCCCCCCCCCCCCCCCCC(NC(C)=O)(C(=O)OCC)C(=O)OCC` is 70 to 71 °C; for `CC(C)(C)OC(=O)CC1(C(=O)OCc2ccccc2)C(=O)N(Cc2ccc(Cl)c(Cl)c2)C(=O)c2cccn21` (centres undefined) it is 86 to 88 °C. As for `COCCSc1sc(-c2cc[nH]n2)c2c1C(=O)CC(C)(C)C2`, the melting point fell in the range of 159 to 162 °C. On to `Cn1nc(-c2ccc(F)cc2F)cc1C(F)(F)F`, for which the melting point is 51 °C.

Consider `CCCc1c(O)c(Cl)cc(C(C)=O)c1O`, for which the melting point worked out at 96 °C. In turn, `O=Cc1ccc(/C=C/c2ccncc2)nc1` returned a melting point of 131 to 136 °C. In turn, `CC(C)(C)c1ccc(C[C@@H](C(=O)O)[C@@H](O)c2ccc(F)cc2)cc1` (racemic) showed a melting point of 102 to 104 °C. Compound `CCCOc1ccccc1-c1nc(NC(C)=O)cc(=O)[nH]1` registered a melting point of 230 to 231 °C.

`Cc1oc(-c2ccccc2)nc1COc1ccc(OCc2ncccc2CC(=O)O)cc1`: the melting point was 126 to 127 °C. Regarding `CN1CNC(=S)N(c2ccc(F)cc2)C1`, the melting point fell in the range of 173 to 175 °C. `O=S1C(c2ccccc2)CC2(CC1c1ccccc1)OCCO2` (centres undefined) returned a melting point of 230 to 232 °C. `COC(=O)c1ccc(C(=O)c2c(C)c(OCc3cccc(OC)c3)c3ccccn23)cc1` came in with a melting point of 106 °C.
